# Experimental data reported in patent publication US20230265068A1, “TRANSIENT RECEPTOR POTENTIAL CANONICAL 3 INHIBITORS AND METHODS OF USE THEREOF” (University of Tennessee Research Foundation, priority 2020, published 2023).
# Target: T1, TRPC3 (Homo sapiens, UniProt Q13507)
# T1 sequence (Q13507 1-921): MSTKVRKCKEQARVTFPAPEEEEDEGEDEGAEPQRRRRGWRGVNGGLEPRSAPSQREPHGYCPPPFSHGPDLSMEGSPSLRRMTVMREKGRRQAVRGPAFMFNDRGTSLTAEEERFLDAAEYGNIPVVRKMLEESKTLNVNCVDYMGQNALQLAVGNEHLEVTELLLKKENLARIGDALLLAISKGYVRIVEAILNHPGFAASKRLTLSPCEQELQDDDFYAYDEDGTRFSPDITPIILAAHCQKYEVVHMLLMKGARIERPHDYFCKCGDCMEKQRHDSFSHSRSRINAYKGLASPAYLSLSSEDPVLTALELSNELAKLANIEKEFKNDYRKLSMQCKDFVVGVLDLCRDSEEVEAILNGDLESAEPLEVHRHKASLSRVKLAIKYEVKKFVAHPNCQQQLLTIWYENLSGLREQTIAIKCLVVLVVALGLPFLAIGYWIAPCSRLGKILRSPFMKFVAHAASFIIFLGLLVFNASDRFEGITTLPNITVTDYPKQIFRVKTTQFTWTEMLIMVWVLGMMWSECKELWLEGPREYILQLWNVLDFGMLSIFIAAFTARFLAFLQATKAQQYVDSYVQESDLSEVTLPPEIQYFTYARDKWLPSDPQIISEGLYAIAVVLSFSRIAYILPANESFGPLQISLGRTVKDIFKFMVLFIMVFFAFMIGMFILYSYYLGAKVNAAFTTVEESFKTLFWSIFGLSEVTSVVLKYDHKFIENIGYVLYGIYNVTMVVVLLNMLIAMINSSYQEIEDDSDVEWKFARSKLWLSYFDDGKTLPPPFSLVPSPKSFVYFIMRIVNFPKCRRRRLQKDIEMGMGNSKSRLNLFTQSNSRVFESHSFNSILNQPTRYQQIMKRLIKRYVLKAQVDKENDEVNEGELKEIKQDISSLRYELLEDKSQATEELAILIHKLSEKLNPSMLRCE
# Test: not given
# Settings: literature ref 21; cited from earlier work
row,SMILES,TRPC3 inhibition
1,O=C(Nc1ccc(-n2ncc(C(=O)O)c2C(F)(F)F)cc1)C(Cl)=C(Cl)Cl [Pyr8],little TRPC3 inhibition

# Target: T1, TRPC3
# Test: whole-cell patch clamp of HEK293 cells transfected with hTRPC3, currents activated by GSK1702934A
# Assay type: cell-based
# Parameters: expressed in transfected cells; host or cells: HEK293 (CRL-1573), transient transfection, pMO vector
# Settings: 10 μM compound in presence of agonist GSK1702934A; HEK293 whole-cell peak current; read-out: hTRPC3 % Inhibition at 10 μM (mean ± SEM)
# Procedure: Human embryonic kidney 293 (HEK293; catalog number CRL-1573) cells were cultured in Dulbecco's modified Eagle's medium (Invitrogen) supplemented with 10% fetal bovine serum and 1% penicillin-streptomycin at 37° C. and 5% CO2. Constructs cloned in pMO (a pcDNA3-modified vector) were co-transfected with GFP-pMO, using Lipofectamine 2000 (Invitrogen) according to the manufacturer's instructions. Macroscopic currents in the whole-cell patch clamp configuration were recorded 18-24 h post-transfection. The extracellular solution contained 140 mM NaCl, 6 mM KCl, 2 mM MgCl2, 10 mM HEPES, and 10 mM glucose (pH 7.4). Pipettes were made of borosilicate glass (outer diameter, 1.5 mm; inner diameter, 1.10 mm; Sutter Instruments) and fire-polished with a resistance between 2.8 and 4.0 megaohms when filled with an intracellular solution that contained 140 mM CsCl, 5 mM EGTA, and 10 mM HEPES, pH 7.2. Currents were recorded with a Multiclamp 700B amplifier (Molecular Devices) using a 1-s ramp from −100 to 100 mV. Agonist and antagonists perfused were dissolved in the bath solution prior experiments: TRP channel agonists Allyl isothiocyanate (AITC; TRPA1), capsaicin (TRPV1), and menthol (TRPM8) were obtained from Sigma, GSK1016790A (TRPV4) from Cayman chemicals, and GSK1702934A (TRPC3, TRPC6 and TRPC7) from Tocris Bioscience. Antagonist Pyr3 was obtained from Tocris Bioscience, all other antagonists were synthesized in house. Data were acquired with a sampling rate of 20 kHz, low-pass filtered (10 kHz), and analyzed offline using Clampfit v10.4.2.0 (Molecular Devices).
# Electrophysiology results were expressed as means±SD. Data were plotted, and sigmoidal fitting was done using OriginPro (from OriginLab), with the following Boltzmann function:
# Using the patch clamp technique in the whole-cell configuration, compounds were screened by challenging hTRPC3 overexpressing HEK293 cells with GSK1702934A to activate TRPC3 and each of the synthesized compounds (10 μM) individually in the presence of the agonist.
# To avoid tachyphylaxis and determine the IC50 of compound 22, each point of the dose response curve (FIG. 1B) was done individually on a cell and exchanging coverslips between cells. […] FIGS. 1D-1I show the inhibition of TRPC3-mediated currents by compound 22 and Pyr3 (serving as the reference control). […] Similar results were obtained when OAG was used as the agonist (data not shown).
row,inhibition at 10 µM,SMILES
1,71.1 ± 2.66%,"CCOC(=O)c1cnn(-c2ccc(-n3ccc(Cl)cc3=O)cc2)c1C(F)(F)F [Compound 2, Ethyl 1-(4-(4-chloro-2-oxopyridin-1(2H)-yl)phenyl)-5-(trifluoromethyl)-1H-pyrazole-4-carboxylate]"
2,57.8 ± 8.74%,"CC(=O)c1cnn(-c2ccc(-n3ccc(C)c(Cl)c3=O)cc2)c1C(F)(F)F [Compound 71, 1-(4-(4-acetyl-5-(trifluoromethyl)-1H-pyrazol-1-yl)phenyl)-3-chloro-4-methylpyridin-2(1H)-one]"
3,92.9 ± 6.78%,"CCc1nnc(-c2cnn(-c3ccc(-n4ccc(Cl)c(Cl)c4=O)cc3)c2C(F)(F)F)o1 [Compound 46, 3,4-dichloro-1-(4-(4-(5-ethyl-1,3,4-oxadiazol-2-yl)-5-(trifluoromethyl)-1H-pyrazol-1-yl)phenyl)pyridin-2(1H)-one]"
4,97.96 ± 0.83%,"CCNCc1cnn(-c2ccc(-n3ccc(Cl)c(Cl)c3=O)cc2)c1C(F)(F)F [Compound 74, 3,4-dichloro-1-(4-(4-((ethylamino)methyl)-5-(trifluoromethyl)-1H-pyrazol-1-yl)phenyl)pyridin-2(1H)-one]"
5,51.4 ± 4.35%,"CCOC(=O)c1cnn(-c2ccc(-n3ccc(Cl)c(Cl)c3=O)cc2)c1C(F)(F)F [Compound 4, Ethyl 1-(4-(3,4-dichloro-2-oxopyridin-1(2H)-yl)phenyl)-5-(trifluoromethyl)-1H-pyrazole-4-carboxylate]"
6,39.1 ± 2.31%,"CCOC(=O)c1cnn(-c2ccc(-n3cc(Cl)c(Cl)cc3=O)cc2)c1C(F)(F)F [Compound 5, Ethyl 1-(4-(4,5-dichloro-2-oxopyridin-1(2H)-yl)phenyl)-5-(trifluoromethyl)-1H-pyrazole-4-carboxylate]"
7,94.8 ± 2.75%,"CCN(CC)C(=O)c1cnn(-c2ccc(-n3ccc(Cl)c(Cl)c3=O)cc2)c1C(F)(F)F [Compound 43, 1-(4-(3,4-dichloro-2-oxopyridin-1(2H)-yl)phenyl)-N,N-diethyl-5-(trifluoromethyl)-1H-pyrazole-4-carboxamide]"
8,39.1 ± 2.31%,"CCOC(=O)c1cnn(-c2ccc(-n3cc(Cl)c(Cl)c(Cl)c3=O)cc2)c1C(F)(F)F [Compound 9, Ethyl 1-(4-(3,4,5-trichloro-2-oxopyridin-1(2H)-yl)phenyl)-5-(trifluoromethyl)-1H-pyrazole-4-carboxylate]"
9,50.5 ± 5.49%,"CCOC(=O)c1cnn(-c2ccc(-n3cc(Cl)cc(Cl)c3=O)cc2)c1C(F)(F)F [Compound 6, Ethyl 1-(4-(3,5-dichloro-2-oxopyridin-1(2H)-yl)phenyl)-5-(trifluoromethyl)-1H-pyrazole-4-carboxylate]"
10,88.8 ± 6.37%,"CCNC(=O)c1cnn(-c2ccc(-n3ccc(Cl)c(Cl)c3=O)cc2)c1C#N [Compound 52, 5-cyano-1-(4-(3,4-dichloro-2-oxopyridin-1(2H)-yl)phenyl)-N-ethyl-1H-pyrazole-4-carboxamide]"
11,47.1 ± 8.29%,"CCNC(=O)c1nnn(-c2ccc(-n3ccc(Cl)c(Cl)c3=O)cc2)c1C(F)(F)F [Compound 61, 1-(4-(3,4-dichloro-2-oxopyridin-1(2H)-yl)phenyl)-N-ethyl-5-(trifluoromethyl)-1H-1,2,3-triazole-4-carboxamide]"
12,40.2 ± 10.3%,"NC(=O)c1cnn(-c2ccc(-n3ccc(Cl)c(Cl)c3=O)cc2)c1C(F)(F)F [Compound 37, 1-(4-(3,4-dichloro-2-oxopyridin-1(2H)-yl)phenyl)-5-(trifluoromethyl)-1H-pyrazole-4-carboxamide]"
13,33 ± 5.58%,"CCCC(N)c1cnn(-c2ccc(-n3ccc(Cl)c(Cl)c3=O)cc2)c1C(F)(F)F (centres unmarked) [Compound 76, 1-(4-(4-(1-aminobutyl)-5-(trifluoromethyl)-1H-pyrazol-1-yl)phenyl)-3,4-dichloropyridin-2(1H)-one]"
14,88.7 ± 2.83%,"CC(=O)c1cnn(-c2ccc(-n3ccc(Cl)c(Cl)c3=O)cc2)c1C(F)(F)F [Compound 67, 1-(4-(4-acetyl-5-(trifluoromethyl)-1H-pyrazol-1-yl)phenyl)-3,4-dichloropyridin-2(1H)-one]"
15,86.7 ± 3.82%,"O=C(c1cnn(-c2ccc(-n3ccc(Cl)c(Cl)c3=O)cc2)c1C(F)(F)F)N1CCCC1 [Compound 45, 3,4-dichloro-1-(4-(4-(pyrrolidine-1-carbonyl)-5-(trifluoromethyl)-1H-pyrazol-1-yl)phenyl)pyridin-2(1H)-one]"
16,45.2 ± 3.59%,CCNC(=O)c1cnn(-c2ccc(-n3cc(Cl)c(Cl)c(Cl)c3=O)cc2)c1C(F)(F)F [Compound 33]
17,67.8 ± 1.75%,"CCNS(=O)(=O)c1cnn(-c2ccc(-n3ccc(Cl)c(Cl)c3=O)cc2)c1C(F)(F)F [Compound 48, 1-(4-(3,4-dichloro-2-oxopyridin-1(2H)-yl)phenyl)-N-ethyl-5-(trifluoromethyl)-1H-pyrazole-4-sulfonamide]"
18,76 ± 6.65%,"CCNC(=O)c1cnn(-c2ccc(-n3ccc(Cl)c(Br)c3=O)cc2)c1C(F)(F)F [Compound 25, 1-(4-(3-bromo-4-chloro-2-oxopyridin-1(2H)-yl)phenyl)-N-ethyl-5-(trifluoromethyl)-1H-pyrazole-4-carboxamide]"

# Same assay, conditions: agonist GSK1702934A; HEK293 whole-cell patch clamp; read-out: hTRPC3 IC50 (μM, mean ± SEM)
row,IC50,SMILES
1,0.29 ± 0.05 µM,"CCc1nnc(-c2cnn(-c3ccc(-n4ccc(Cl)c(Cl)c4=O)cc3)c2C(F)(F)F)o1 [Compound 46, 3,4-dichloro-1-(4-(4-(5-ethyl-1,3,4-oxadiazol-2-yl)-5-(trifluoromethyl)-1H-pyrazol-1-yl)phenyl)pyridin-2(1H)-one]"
2,0.09 ± 0.02 µM,"CCNCc1cnn(-c2ccc(-n3ccc(Cl)c(Cl)c3=O)cc2)c1C(F)(F)F [Compound 74, 3,4-dichloro-1-(4-(4-((ethylamino)methyl)-5-(trifluoromethyl)-1H-pyrazol-1-yl)phenyl)pyridin-2(1H)-one]"
3,4.32 ± 0.98 µM,"CCN(CC)C(=O)c1cnn(-c2ccc(-n3ccc(Cl)c(Cl)c3=O)cc2)c1C(F)(F)F [Compound 43, 1-(4-(3,4-dichloro-2-oxopyridin-1(2H)-yl)phenyl)-N,N-diethyl-5-(trifluoromethyl)-1H-pyrazole-4-carboxamide]"

# Test system: not listed separately
# Test: maximum tolerated dose / in vivo toxicity study in mice
# Settings: mouse, in vivo
# Procedure: The in vivo study was performed in compliance with the NIH Animal Use Guidelines and protocol approved by the Institutional Animal Care and Use Committee (IACUC) at the University of Tennessee Health Science Center (UTHSC, Memphis, Tenn.). NSG mice at 8 weeks (n=2) and ICR mice at 12 weeks (n=3) were housed with a 12:12-hour light-dark cycle and fed a breeder chow diet. Daily IP injections of 200 mg/kg of compounds 22 or 79 were administered for five consecutive injections in five mice, respectively, which were followed to monitor the mortality rate. Body weights of the mice were recorded daily.
# The metabolic stability of compound 22 was tested prior to the next phase of in vivo study. […] The maximum tolerated dose (MTD) study was subsequently performed to investigate its in vivo toxicity (FIGS. 4A and 4B). The second major limitation of Pyr3 is its toxicity due to its alkylating tail moiety. While replacing only the fast-metabolizing head ester group in Pyr3 with a stable amide (compound 79) improved metabolic stability, a single IP injection of compound 79 at 200 mg/kg killed all mice within 24 h.
# Compound 79 is a metabolically stable version of Pyr3. Mice treated daily with compound 22 or compound 79 (n=5) for 5 consecutive days. All the mice were treated with either compound 22 or 79 at 200 mg/kg (IP). […]
row,SMILES,survival of treated mice
1,"CCOC(=O)c1cnn(-c2ccc(-n3ccc(Cl)c(Br)c3=O)cc2)c1C(F)(F)F [Compound 8, Ethyl 1-(4-(3-bromo-4-chloro-2-oxopyridin-1(2H)-yl)phenyl)-5-(trifluoromethyl)-1H-pyrazole-4-carboxylate]",alive
